Laboratory results published in patent US12152012B2, “BRAG2 inhibitors and applications thereof” (CENTRE NATIONAL DE LA RECHERCHE SCIENTIFIQUE, priority 2018, dated 2024).

Molecular target: T1, ARNO (Sec7PH construct) (Homo sapiens, UniProt Q99418)
T1 construct: BIG1^DcbHusSec7 (2-888) and ARNO^Sec7PH (50-399); made in house
T1 sequence (Q99418 50-399 isoform Q99418-2): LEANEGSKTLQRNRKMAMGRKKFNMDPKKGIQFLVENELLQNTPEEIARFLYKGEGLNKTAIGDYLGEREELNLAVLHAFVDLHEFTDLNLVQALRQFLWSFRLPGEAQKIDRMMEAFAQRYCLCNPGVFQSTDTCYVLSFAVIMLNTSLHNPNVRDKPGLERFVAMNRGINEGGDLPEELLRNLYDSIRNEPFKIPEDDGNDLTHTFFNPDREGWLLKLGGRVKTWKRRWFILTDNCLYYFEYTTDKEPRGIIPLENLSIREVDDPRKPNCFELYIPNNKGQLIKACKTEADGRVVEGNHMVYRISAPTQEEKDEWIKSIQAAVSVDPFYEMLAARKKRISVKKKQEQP
Assay: Nucleotide exchange kinetics on liposomes, activation of myristoylated Arf1
Format: biochemical
Settings: 50 μM

Effect on ArfGEF activity on liposomes: no effect
Compound: Cc1ccc2oc(C(F)(F)F)cc(=O)c2c1[N+](=O)[O-] [Bragsin1, 6-methyl-5-nitro-2-(trifluoromethyl)-4H-chromen-4-one]
